Structures can show the parent of a compound that is named as a salt.
Target: T1, AR (Homo sapiens, UniProt P10275)
T1 construct: endogenous in cells; host or cells: VCaP cells
T1 sequence (P10275 1-920): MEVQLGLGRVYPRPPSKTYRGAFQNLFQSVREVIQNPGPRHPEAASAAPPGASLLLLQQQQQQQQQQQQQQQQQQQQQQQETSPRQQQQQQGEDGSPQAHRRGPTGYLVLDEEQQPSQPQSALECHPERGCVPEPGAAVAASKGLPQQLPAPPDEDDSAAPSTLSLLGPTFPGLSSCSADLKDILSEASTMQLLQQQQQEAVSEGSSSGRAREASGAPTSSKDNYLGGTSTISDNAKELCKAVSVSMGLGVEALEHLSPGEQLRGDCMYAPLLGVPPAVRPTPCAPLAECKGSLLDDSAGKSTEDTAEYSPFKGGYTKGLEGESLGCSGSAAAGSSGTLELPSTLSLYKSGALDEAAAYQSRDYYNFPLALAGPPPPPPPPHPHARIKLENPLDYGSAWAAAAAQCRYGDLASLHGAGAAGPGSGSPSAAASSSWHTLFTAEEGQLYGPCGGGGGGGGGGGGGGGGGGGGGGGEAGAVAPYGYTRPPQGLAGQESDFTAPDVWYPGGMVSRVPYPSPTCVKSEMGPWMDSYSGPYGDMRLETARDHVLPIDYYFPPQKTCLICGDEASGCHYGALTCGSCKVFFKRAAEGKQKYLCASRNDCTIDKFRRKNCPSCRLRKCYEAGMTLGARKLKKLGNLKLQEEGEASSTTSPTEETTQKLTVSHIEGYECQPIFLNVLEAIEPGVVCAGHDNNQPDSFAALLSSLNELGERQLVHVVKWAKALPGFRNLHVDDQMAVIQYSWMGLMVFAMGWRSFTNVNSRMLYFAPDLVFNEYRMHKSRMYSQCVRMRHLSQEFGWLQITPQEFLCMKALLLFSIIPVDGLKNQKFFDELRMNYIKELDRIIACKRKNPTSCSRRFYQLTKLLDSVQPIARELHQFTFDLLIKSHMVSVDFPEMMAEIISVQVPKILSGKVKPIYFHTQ
Assay: VCAP AR Degradation Assay
Type: cell-based
Conditions: VCaP cells, 24 h, AR ELISA; for DC50: concentration of compound when AR level = 50% of DMSO control (50% AR degradation); for Y: lowest measured AR level normalized to DMSO control (AR degradation efficiency)
Method: VCAP AR Degradation Assay. Test compounds were pre-dispensed into a Corning CellBind 96-well clear bottom plate (Cat #3300) using an acoustic dispenser to make a 10-point concentration series at 1:3 dilution for each compound. The final top concentration of each compound was 5 μM. DMSO at a final concentration of 0.1% was used as a control. VCaP cells cultured in DMEM with 8% fetal bovine serum (FBS) were seeded at 50K cells per well in a 200 μL volume into the compound plate and incubated at 37° C. in a CO2 incubator for 24 h. The medium was carefully removed from the cells and the plate was placed on ice. […] ice-cold 1× cell lysis buffer from Cell Signaling Technologies (Cat #9803) was added to each well of the cells and the plate was incubated at 4° C. on a shaker for 1 h. Fifteen μL of cell lysate was used for AR ELISA detection using a PathScan Total Sandwich AR ELISA kit (Cell Signaling Technology, Cat #12580). AR levels in compound-treated wells were normalized to that of DMSO control and expressed as percent of control (PoC) (y). A Four Parameter Logistic Model (Sigmoidal Dose-Response Model) was used to determine the compound's DC50, and EC50, using the following equation: y=(A+((B−A)/(1+((C/x)^D)))) • A=YMin (lowest AR level normalized to DMSO control in response to compound treatment, as determined by curve fit) • B=YMax (maximum AR level as determined by curve fit) • C=EC50 • D=Hill Slope • x=compound concentration • EC50=the concentration of compound when y=[…] • DC50=the concentration of the compound when y=50% of DMSO control (50% AR degradation) • y=AR protein level normalized to DMSO control
The lowest measured AR level normalized to DMSO control in response to compound treatment, termed Y value, was used to characterize the compound-mediated AR degradation efficiency.

C[C@@H]1CN(CCO[C@H]2CC[C@H](N3C(=S)N(c4ccc(C#N)c(C(F)(F)F)c4)C(=O)C3(C)C)CC2)C[C@H](C)N1CC(=O)Nc1cccc2c(N3CCC(=O)NC3=O)nn(C)c12 [Cmpd 1, 2-((2S,6R)-4-(2-((trans-4-(3-(4-Cyano-3-(trifluoromethyl)phenyl)-5,5-dimethyl-4-oxo-2-thioxoimidazolidin-1-yl)cyclohexyl)oxy)ethyl)-2,6-dimethylpiperazin-1-yl)-N-(3-(2,4-dioxotetrahydropyrimidin-1(2H)-yl)-1-methyl-1H-indazol-7-yl)acetamide hydrochloride]
DC50: 10 to 100 nM | Y: *** (30%<Y<60%)

C[C@@H]1CN(CCC[C@H]2CC[C@H](N3C(=S)N(c4ccc(C#N)c(C(F)(F)F)c4)C(=O)C3(C)C)CC2)C[C@H](C)N1CC(=O)Nc1cccc2c(N3CCC(=O)NC3=O)nn(C)c12 [Cmpd 2, 2-((2R,6S)-4-(3-(trans-4-(3-(4-Cyano-3-(trifluoromethyl)phenyl)-5,5-dimethyl-4-oxo-2-thioxoimidazolidin-1-yl)cyclohexyl)propyl)-2,6-dimethylpiperazin-1-yl)-N-(3-(2,4-dioxotetrahydropyrimidin-1(2H)-yl)-1-methyl-1H-indazol-7-yl)acetamide hydrochloride]
DC50: 2 to 10 nM | Y: ** (20%<Y≤%)

C[C@@H]1CN(CCO[C@H]2CC[C@H](N3C(=S)N(c4ccc(C#N)c(Cl)c4)C(=O)C3(C)C)CC2)C[C@H](C)N1CC(=O)Nc1cccc2c(N3CCC(=O)NC3=O)nn(C)c12 [Cmpd 3, 2-((2R,6S)-4-(2-((trans-4-(3-(3-Chloro-4-cyanophenyl)-5,5-dimethyl-4-oxo-2-thioxoimidazolidin-1-yl)cyclohexyl)oxy)ethyl)-2,6-dimethylpiperazin-1-yl)-N-(3-(2,4-dioxotetrahydropyrimidin-1(2H)-yl)-1-methyl-1H-indazol-7-yl)acetamide hydrochloride]
DC50: 2 to 10 nM | Y: *** (30%<Y<60%)

C[C@@H]1CN(CCO[C@H]2CC[C@H](N3C(=S)N(c4cnc(C#N)c(C(F)(F)F)c4)C(=O)C3(C)C)CC2)C[C@H](C)N1CC(=O)Nc1cccc2c(N3CCC(=O)NC3=O)nn(C)c12 [Cmpd 4, 2-((2R,6S)-4-(2-((trans-4-(3-(6-Cyano-5-(trifluoromethyl)pyridin-3-yl)-5,5-dimethyl-4-oxo-2-thioxoimidazolidin-1-yl)cyclohexyl)oxy)ethyl)-2,6-dimethylpiperazin-1-yl)-N-(3-(2,4-dioxotetrahydropyrimidin-1(2H)-yl)-1-methyl-1H-indazol-7-yl)acetamide hydrochloride]
DC50: 2 to 10 nM | Y: ** (20%<Y≤%)

C[C@@H]1CN(CCO[C@H]2CC[C@H](N3C(=S)N(c4ccc(C#N)c(C(F)(F)F)c4)C(=O)C3(C)C)CC2)C[C@H](C)N1CCC(=O)Nc1cccc2c(N3CCC(=O)NC3=O)nn(C)c12 [Cmpd 5, 3-((2R,6S)-4-(2-((trans-4-(3-(4-Cyano-3-(trifluoromethyl)phenyl)-5,5-dimethyl-4-oxo-2-thioxoimidazolidin-1-yl)cyclohexyl)oxy)ethyl)-2,6-dimethylpiperazin-1-yl)-N-(3-(2,4-dioxotetrahydropyrimidin-1(2H)-yl)-1-methyl-1H-indazol-7-yl)propanamide]
DC50: 2 to 10 nM | Y: *** (30%<Y<60%)

C[C@@H]1CN(CCO[C@H]2CC[C@H](N3C(=S)N(c4cnc(C#N)c(Cl)c4)C(=O)C3(C)C)CC2)C[C@H](C)N1CC(=O)Nc1cccc2c(N3CCC(=O)NC3=O)nn(C)c12 [Cmpd 6, 2-((2R,6S)-4-(2-((trans-4-(3-(5-Chloro-6-cyanopyridin-3-yl)-5,5-dimethyl-4-oxo-2-thioxoimidazolidin-1-yl)cyclohexyl)oxy)ethyl)-2,6-dimethylpiperazin-1-yl)-N-(3-(2,4-dioxotetrahydropyrimidin-1(2H)-yl)-1-methyl-1H-indazol-7-yl)acetamide hydrochloride]
DC50: ≤ 2 nM | Y: * (0<Y≤20%)

C[C@@H]1CN(CCCO[C@H]2CC[C@H](N3C(=S)N(c4cnc(C#N)c(C(F)(F)F)c4)C(=O)C3(C)C)CC2)C[C@H](C)N1CC(=O)Nc1cccc2c(N3CCC(=O)NC3=O)nn(C)c12 [Cmpd 7, 2-((2R,6S)-4-(3-((trans-4-(3-(6-Cyano-5-(trifluoromethyl)pyridin-3-yl)-5,5-dimethyl-4-oxo-2-thioxoimidazolidin-1-yl)cyclohexyl)oxy)propyl)-2,6-dimethylpiperazin-1-yl)-N-(3-(2,4-dioxotetrahydropyrimidin-1(2H)-yl)-1-methyl-1H-indazol-7-yl)acetamide hydrochloride]
DC50: ≤ 2 nM | Y: ** (20%<Y≤%)

C[C@@H]1CN(CCCO[C@H]2CC[C@H](N3C(=S)N(c4ccc(C#N)c(C(F)(F)F)c4)C(=O)C3(C)C)CC2)C[C@H](C)N1CC(=O)Nc1cccc2c(N3CCC(=O)NC3=O)nn(C)c12 [Cmpd 8, 2-((2R,6S)-4-(3-((trans-4-(3-(4-Cyano-3-(trifluoromethyl)phenyl)-5,5-dimethyl-4-oxo-2-thioxoimidazolidin-1-yl)cyclohexyl)oxy)propyl)-2,6-dimethylpiperazin-1-yl)-N-(3-(2,4-dioxotetrahydropyrimidin-1(2H)-yl)-1-methyl-1H-indazol-7-yl)acetamide hydrochloride]
DC50: ≤ 2 nM | Y: * (0<Y≤20%)

C[C@@H]1CN(CCCO[C@H]2CC[C@H](N3C(=S)N(c4ccc(C#N)c(Cl)c4)C(=O)C3(C)C)CC2)C[C@H](C)N1CC(=O)Nc1cccc2c(N3CCC(=O)NC3=O)nn(C)c12 [Cmpd 9, 2-((2R,6S)-4-(3-((trans-4-(3-(3-Chloro-4-cyanophenyl)-5,5-dimethyl-4-oxo-2-thioxoimidazolidin-1-yl)cyclohexyl)oxy)propyl)-2,6-dimethylpiperazin-1-yl)-N-(3-(2,4-dioxotetrahydropyrimidin-1(2H)-yl)-1-methyl-1H-indazol-7-yl)acetamide hydrochloride]
DC50: ≤ 2 nM | Y: * (0<Y≤20%)

C[C@@H]1CN(CCC[C@H]2CC[C@H](N3C(=S)N(c4cnc(C#N)c(C(F)(F)F)c4)C(=O)C3(C)C)CC2)C[C@H](C)N1CC(=O)Nc1cccc2c(N3CCC(=O)NC3=O)nn(C)c12 [Cmpd 10, 2-((2R,6S)-4-(3-(trans-4-(3-(6-Cyano-5-(trifluoromethyl)pyridin-3-yl)-5,5-dimethyl-4-oxo-2-thioxoimidazolidin-1-yl)cyclohexyl)propyl)-2,6-dimethylpiperazin-1-yl)-N-(3-(2,4-dioxotetrahydropyrimidin-1(2H)-yl)-1-methyl-1H-indazol-7-yl)acetamide hydrochloride]
DC50: 2 to 10 nM | Y: * (0<Y≤20%)

C[C@@H]1CN(CCC[C@H]2CC[C@H](N3C(=S)N(c4ccc(C#N)c(Cl)c4)C(=O)C3(C)C)CC2)C[C@H](C)N1CC(=O)Nc1cccc2c(N3CCC(=O)NC3=O)nn(C)c12 [Cmpd 11, 2-((2S,6R)-4-(3-(trans-4-(3-(3-Chloro-4-cyanophenyl)-5,5-dimethyl-4-oxo-2-thioxoimidazolidin-1-yl)cyclohexyl)propyl)-2,6-dimethylpiperazin-1-yl)-N-(3-(2,4-dioxotetrahydropyrimidin-1(2H)-yl)-1-methyl-1H-indazol-7-yl)acetamide hydrochloride]
DC50: 10 to 100 nM | Y: *** (30%<Y<60%)

— patent publication US11560371B2, “Cereblon binding compounds, compositions thereof, and methods of treatment therewith” (Celgene Corporation, priority 2020, dated 2023)
